The record followed here is publication PMC3366674, “Epigenetic Tailoring for the Production of Anti-Infective Cytosporones from the Marine Fungus Leucostoma persoonii” (Marine Drugs, 2012).

Converted amounts (≈) assume the structure as drawn. Read-outs that look alike come from different tables or passages of the source.

For experiment [1], the system named is methicillin-resistant Staphylococcus aureus (MRSA) USA100. Kind of experiment: Minimum bactericidal concentration (MBC) counts on MIC cultures. Format: cell-based. The conditions noted are these: for fold reduction in bacterial viability at MIC: MRSA USA100, at MIC; for MBC: Staphylococcus aureus, MRSA USA100, read-out: MRSA MBC90. The method, then: (§1) The strain of MRSA used in our bioassays is a hospital-associated clone from the CDC USA 100 lineage. […] It is thus deemed an extensively drug resistant strain, and something of a worst-case scenario MRSA isolate.
(§2) The minimum inhibitory concentration (MIC) of the pure compounds was determined as follows. Broth cultures were prepared for S. aureus strains as described above. These were diluted 1:1000 in fresh Trypticase Soy Broth (TSB) and 200 µL was applied to the wells of a sterile 96-well plate. Compounds (in DMSO) were added to wells at concentrations ranging from 1, 10, 25, 50 to 100 µg/mL in a volume no greater than 5 µL. Concentrations were adjusted to lower levels if applicable. Samples were mixed by pipetting and the plates were incubated at 37 °C overnight. MICs were determined by visual inspection for the minimum concentration of compound producing no bacterial growth, as determined by a lack of turbidity. Assays were repeated three times in order to verify the MIC determinations. […] Minimum bactericidal concentration (MBC) counts were performed on the MIC cultures by removing the growth media from each well the following morning, serially diluting, and plating onto Trypticase Soy Agar (TSA). These were incubated overnight at 37 °C and the bacterial loads of each well were determined by enumeration. Percentage killing was determined by the comparison of drug-containing wells to control wells where no compound was added.

In experiment [2] the test system is MRSA biofilm. Kind of experiment: Minimum biofilm eradication count (MBEC) biofilm assay. Format: cell-based, Staphylococcus aureus. As to conditions: MRSA USA100 biofilm; for MRSA MBEC90: 24 h exposure. As for the experimental part:
as §1
We performed minimum biofilm eradication count (MBEC) assays on cytosporones to assess their activity towards this form of bacterial growth. These were performed by generating S. aureus biofilms in a 96-well microtitre plate, as previously described. Once established, biofilm cultures were exposed to fresh growth media containing a range of concentrations of 15, 20, 25 and 50 µg/mL of the cytosporones. Control analyses were performed in parallel containing no compound. Cultures were incubated, covered, for 24 h at 37 °C without shaking. After this time the culture media was aseptically aspirated, and the wells rinsed twice with PBS to remove non-adherent cells. Fresh PBS (100 µL) was then added to the wells, and mixed by vigorous pipetting, to dislodge the biofilm matrix from the surface of the wells. These samples were serially diluted, plated on TSA, with cells enumerated after overnight incubation at 37 °C. Each of the above analyses was performed with 3 biological replicates, each of which also had 3 technical replicates. By comparing CFU/mL against control, no-exposed cultures, we were able to obtain a quantitative assessment of the impact of cytosporones on S. aureus biofilms.

The subject of experiment [3] is A549 cells. Briefly: A549 cytotoxicity assay (CellTiter 96 Aqueous One). In kind it is cell-based, human. The conditions noted are these: 72 h incubation. The method, then:
Cell line A549 (adenocarcinomic human alveolar epithelial cells) was cultured in F-12K Nutrient Mixture (Kaighn’s Modification) media containing L-glutamine, supplemented with 10% fetal bovine serum and 1% penicillin-streptomycin. For the assay, the A549 cells were diluted to 1.33 × 10^5 cells/mL in DMEM F12 media with L-glutamine, without HEPES or phenol red, and supplemented with 2% fetal bovine serum and 1% penicillin-streptomycin. The A549 cells were dispensed into 96 well plates at a volume of 90 µL/well giving a final concentration of 12,000 cells per well. Plates were incubated for 24 h at 37 °C and 5% CO2. After 24 h, 10 µL of the test compounds at concentrations of 0.4, 1.2, 3.7, 11, 33.3 and 100 µg/mL were added to the 96 well plates containing A549 cells followed by 72 h of incubation at 37 °C and 5% CO2. A Beckman-Coulter Biomek NX 3000 was used to dispense cells and dispense test compounds to the 96 well plates. Positive (bronopol) and negative (blank DMSO) controls were included on each assay plate. After the incubation period, cell proliferation was assessed using Promega’s CellTiter 96 Aqueous One Solution Cell Proliferation Assay reagent. Into each well 20 µL of reagent was added followed by incubation for 3 h at 37 °C and 5% CO2. A Biotek plate reader was used to read absorbance at 490 nm and IC50 values were determined for each test compound.

For experiment [4], the system named is methicillin-resistant Staphylococcus aureus (MRSA) USA100. Kind of experiment: Microtiter MIC determination against MRSA USA100. The conditions noted are these: for MIC: Staphylococcus aureus; for activity against MRSA: pure compound. Format: cell-based. The method, then: as §1, §2
Experiment [5] deals with Plasmodium falciparum. Kind of experiment: Malaria assay (luciferase-reporter Plasmodium falciparum). In kind it is cell-based. The conditions noted are these: for activity toward Plasmodium falciparum: levels tested up to 10 µg/mL. The method, then:
Mangrove endophytes isolated as described above were subject to small-scale cultivation on Sabouraud dextrose agar (SDA), freeze dried, then extracted with methanol. Extracts at a concentration of 30 mg/mL were screened in a luciferase-reporter Plasmodium falciparum assay.
Malaria screening was done as previously reported.

Experiment [6] relates to methicillin-sensitive S. aureus (MSSA). Briefly: Microtiter MIC determination against MSSA. In kind it is cell-based. The conditions noted are these: Staphylococcus aureus, methicillin-sensitive S. aureus strains. The method, then: as §2
Setting [7] is: MRSA USA100, overnight 37 °C, visual turbidity, read-out: MRSA MIC.

As to `CCCCCCCC(=O)c1c(O)cc(O)cc1CC(=O)OCC` [Cytosporone B, cytosporone B], in experiment [1], the “fold reduction in bacterial viability at MIC” value was found to be 4.2 fold and the MBC was found to be 93 µM (≈ 30 µg/mL). Moreover, the “bacterial killing at twice the MIC” value in experiment [1] (MRSA USA100, at twice the MIC) is reported as “complete killing of the bacteria”. In addition, in experiment [2], the “MRSA MBEC90” value is 110 µM and the “fold reduction in biofilm (MBEC assay) at MIC” value is 2 fold. Also, in experiment [2] (at twice the MIC), the “fold reduction in biofilm formation at twice the MIC” value is listed as 168 fold. Besides, in experiment [3] (Homo sapiens), half-maximal inhibition (IC50) required 170 µM. Moreover, it took 190 µM to reach the 90% level in experiment [3] (Homo sapiens, A549, 72 h) (IC90). For the same compound, in experiment [4] (setting [7]), the MIC (usually the lowest concentration found to suppress growth) amounted to 78 µM. For the same compound, the “activity toward Plasmodium falciparum” value in experiment [5] was “inactive”.

With `CCCCCCCC1OC(=O)Cc2cc(O)cc(O)c21` (stereo not shown) [Cytosporone C, cytosporone C], half-maximal inhibition in experiment [3] (Homo sapiens) (IC50) required 690 µM. It took 840 µM to reach the 90% level in experiment [3] (Homo sapiens, A549, 72 h) (IC90). Moreover, the minimum inhibitory concentration (MIC) in experiment [4] (setting [7]) is greater than 358 µM. In addition, the “activity against MRSA” value in experiment [4] was “inactive”. Moreover, the “activity toward Plasmodium falciparum” value in experiment [5] is “inactive”.

As for `CCCCCCCC1OC(=O)c2cc(O)c(O)c(O)c21` (stereo not shown) [Cytosporone E, cytosporone E], the “fold reduction in bacterial viability at MIC” value in experiment [1] is listed as greater than 5000 fold. In experiment [1], the MBC is 45 µM (≈ 12.6 µg/mL). Also, in experiment [2], the “MRSA MBEC90” value is 39 µM. Moreover, the “fold reduction in biofilm (MBEC assay) at MIC” value in experiment [2] came out at 183 fold. Also, the IC90 (usually the point of the concentration-response curve where the effect stands at 90%) in experiment [3] (listed as Cytosporone E (3)) turned out to be 440 µM; in experiment [3] (Homo sapiens, A549, 72 h), 437 µM; in experiment [5] (Plasmodium falciparum, read-out: IC90 toward Plasmodium falciparum), 13 µM. Besides, the half-maximal inhibitory concentration (IC50) (usually the midpoint of a concentration-inhibition curve) in experiment [3] (Homo sapiens) turned out to be 280 µM. Further, the MIC in experiment [4] (setting [7]) was found to be 72 µM; in experiment [6], 72 µM (≈ 20.2 µg/mL).

`CCCCCCCC(=O)c1c(O)cc(O)cc1CC(=O)OCC(O)CO` (stereo not shown) [Cytosporone R, cytosporone R]: the MIC in experiment [4] (setting [7]) came out at 503 µM. In addition, in experiment [4], the “activity against MRSA” value is “inactive”.

Take `CN[C@H](CC(C)C)C(=O)N[C@H]1C(=O)N[C@@H](CC(N)=O)C(=O)N[C@H]2C(=O)N[C@H]3C(=O)N[C@H](C(=O)N[C@H](C(=O)O)c4cc(O)cc(O)c4-c4cc3ccc4O)[C@H](O)c3ccc(c(Cl)c3)Oc3cc2cc(c3O[C@@H]2O[C@H](CO)[C@@H](O)[C@H](O)[C@H]2O[C@H]2C[C@](C)(N)[C@H](O)[C@H](C)O2)Oc2ccc(cc2Cl)[C@H]1O` [vancomycin, reference compound]: the MIC in experiment [4] (read-out: MIC of positive control) was 1 µg/mL.
